# In US20160279088A1, “COMPOSITION FOR PROMOTING DIFFERENTIATION OR PROLIFERATION OF ERYTHROCYTIC CELLS, CONTAINING MONOACETYL DIACYLGLYCEROL COMPOUND AS ACTIVE INGREDIENT” (ENZYCHEM LIFESCIENCES CORPORATION, priority 2013, published 2016):
# Entries after “also recorded” stand apart in the source; their conditions may differ.
# Assays:
# [1] = system: erythroid cells; test: FACS analysis of erythroid cells (TER-119) in bone marrow cells of mice treated with EC-18; assay type: in vivo, C57BL mouse; conditions: C57BL mice, EC-18 orally 50 mg/kg for seven days; untreated mice 31.2%
# Description: Bone marrow cells were isolated from C57BL mice in the following manner. A total of eight 9-week-old C57 BL mice weighting […] were used in the experiment. Three mice were used as control (C1-3). EC-18 was administered orally to five mice at a dose of 50 mg/kg for seven days. Mice were sacrificed by […] and sterilized with 70% alcohol. The tissue of tibia and femur was cut, skin was removed and muscles were taken out. After removing tibia by breaking it in the opposite direction, the sample was washed with 70% alcohol and placed in PBS. After removing the cartilage between femur and tibia, muscles were removed from femur. Femur was separated from pelvis, washed in 70% alcohol and placed in PBS. In order to isolate bone marrow cells from femur, the pelvic end was cut and after filling the 1 ml syringe with culture media, the needle was injected into the cartilage in the knee side to allow bone marrow cells to be pushed out. […]
# Differentiation and proliferation of erythroid cells in bone marrow cells collected from C57BL mice treated with EC-18 were analyzed by using TER-119 antibody (BD Biosciences-Pharmingen, San Jose, Calif., USA), which is a marker of erythroid cells, and FACS. […] Bone marrow cells isolated by the method of Example 2 were stained by incubating with anti-TER119-FITC antibody and analyzed by using FACscan flow cytometer (Becton Dickinson, San Jose, Calif.).
# [2] = system: cells other than erythroid cells in bone marrow cells; test: FACS analysis of other bone marrow cells (B, T, DC, macrophages, neutrophils, NK) of mice treated with EC-18; assay type: in vivo, C57BL mouse; conditions: C57BL mice, EC-18 orally 50 mg/kg for seven days, CD19, CD4, CD8, CD11c, CD11b/F4, CD11b/ly, CD122 antibodies
# Description: Bone marrow cells were isolated from C57BL mice in the following manner. A total of eight 9-week-old C57 BL mice weighting […] were used in the experiment. Three mice were used as control (C1-3). EC-18 was administered orally to five mice at a dose of 50 mg/kg for seven days. Mice were sacrificed by […] and sterilized with 70% alcohol. The tissue of tibia and femur was cut, skin was removed and muscles were taken out. After removing tibia by breaking it in the opposite direction, the sample was washed with 70% alcohol and placed in PBS. After removing the cartilage between femur and tibia, muscles were removed from femur. Femur was separated from pelvis, washed in 70% alcohol and placed in PBS. In order to isolate bone marrow cells from femur, the pelvic end was cut and after filling the 1 ml syringe with culture media, the needle was injected into the cartilage in the knee side to allow bone marrow cells to be pushed out. The culture media containing bone marrow cells was transferred to a tube and the tube was centrifuged. […]
# Bone marrow cells isolated from C57BL mice treated with EC-18 (EC1-EC5, EC-18) and untreated mice (C1-C3, con) were compared. […] Cells were incubated with TER-119, CD19, CD4, CD8, CD11c, CD11b/ly, CD122 antibodies (BD Biosciences-Pharmingen, San Jose, CA, USA) for 1 hour and analyzed using FACscan flow cytometer (Becton Dickinson, San Jose, Calif.).
# [3] = system: erythrocytes; test: Concentration of erythrocytes in blood of phenyl hydrazine anemia-induced mice; assay type: in vivo, mouse; conditions: EC-18 orally 5 mg/ml
# Description: To observe changes in the level of erythrocytes in mouse blood, anemia-induced mice were prepared by administering phenyl hydrazine (PHZ) intraperitoneally into mice weighing […] at a dose of […]. After administering EC-18 orally to the mice at a dose of 5 mg/ml, blood was collected after 3 days and 13 days. For comparison, a normal group that was not treated with phenyl hydrazine and a control group that was treated with olive oil instead of EC-18 were prepared and blood was collected from the groups after 3 days and 13 days. Collected blood was transferred to EDTA bottle 0.5 ml (Minicollect tube, Greiner bio-one, Austria) and the concentration of erythrocytes (number per pl, unit: 10^6) was measured using a flow cytometer, Auto Hematology Analyzer BC-5300 (Mindray, Shenzhen, China). FIG. 5 is a graph showing the concentration of erythrocytes 3 days after phenyl hydrazine treatment in the normal group, the control group (treated with PHZ and olive oil) and the test group (treated with PHZ and EC-18). FIG. 6 is a graph showing the concentration of erythrocytes 13 days after phenyl hydrazine treatment in the normal group, the control group and the test group.
# [4] = sepsis animal model, cecal-ligation-puncture; cited from earlier work
# [5] = GLP toxicity test; cited from earlier work
smiles,measurement,setting,value
"CCCCC/C=C\C/C=C\CCCCCCCC(=O)OC(COC(C)=O)COC(=O)CCCCCCCCCCCCCCC (stereo not drawn) [EC-18, 1-palmitoyl-2-linoleoyl-3-acetylglycerol]","percentage of erythroid cells in bone marrow cells (TER-119, FACS)",[1],41.7%
same,ratio of cells other than erythroid cells in bone marrow cells,[2],maintained same; also recorded: not changed
same,concentration of erythrocytes in blood 3 days after PHZ treatment,"[3]; vs control (PHZ and olive oil), 3 days",mitigates the reduction of erythrocytes
same,concentration of erythrocytes in blood 13 days after PHZ treatment,"[3]; vs normal group, 13 days",slightly higher than the normal level
same,survivability ratio of animals,[4],increases survivability ratio
same,toxicity,[5],no toxicity
